The target in assay [1] is T1, Recombinant Human ENPP-1 Protein (Homo sapiens (Human), UniProt P22413). Nature of the assay: ENPP1 Assay (TMP). In kind it is biochemical.
Method: Assay Buffer: 1 mM CaCl2, 0.2 mM ZnCl2, 50 mM Tris, pH 9.0
Enzyme: 1 ng/μL Recombinant Human ENPP-1 Protein (purified in-house)—Assay Cone.: 5 ng/well
A ten point serial dilution of drugs was prepared in 10× in assay buffer with the final assay concentrations starting at 10 μM, 3 μM, 1 μM, 0.3 μM . . . 0 μM. A dilution of DMSO was included as a control. The assay plate was set up as follows with each well in duplicate: 75 μL assay buffer+10 μL ENPP1 inhibitor or DMSO Dilutions+10 μL Substrate+5 μL Enzyme (5 ng). Both the enzyme and substrate were added to opposite sides of the well to ensure that there was no interaction until all wells had both components. The plate was then centrifuged gently for 10 seconds, followed by an incubation at 37° C. for 45 minutes. […] Data was analyzed using GraphPad Prism 8.0.
The target in assay [2] is T1, Recombinant Human ENPP-1 Protein. Format: binding. Particulars: SYPRO Orange protein melt.
Method: Recombinant Human ENPP-1 Protein (Purified In-House)
Assay Buffer (1 mM CaCl2, 0.2 mM ZnCl2, 50 mM Tris, pH 9.0)
5000×SYPRO Orange (ThermoFisher cat #S6651)
Each drug was prepared as a 1 Ox solution in the assay buffer and SYPRO Orange was diluted to 10× concentration in water. Wells were set up in duplicate in a 384-well PCR plate as follows: 14 μL assay buffer, 2 μL ENPP1 Inhibitor or DMSO, 2 μL (0.5 μg) ENPP1 protein. Each well was mixed and incubated on ice for 5 minutes. Post incubation, 2 μL of SYPRO Orange was mixed into each well and followed by a gentle centrifugation. The protein melt reaction was run using ViiA7 software with temperatures beginning at 25° C. and increasing by 0.05° C./s to the maximum temperature of 99° C.
Assay [3] concerns the target Recombinant Human ENPP-2/Autotaxin (rhENPP-2) (Homo sapiens (Human), UniProt Q13822). As to the kind of experiment: ENPP2 Assay. Particulars: substrate BPNPP, pH 8.5, 37° C. 10 minutes, absorbance at 400 nm. Format: biochemical. The method, then: Assay Buffer: 50 mM Tris, 10 mM CaCl2, 5 mM MgCl2, 0.02% Brij-35 (v/v), pH 8.5
Substrate: 20 mM Bis(p-Nitrophenyl) Phosphate Sodium Salt (BPNPP) (Sigma, Catalog #N3002)
Enzyme: 0.01 ng/μL Recombinant Human ENPP-2/Autotaxin (rhENPP-2) (R&D Catalog #5255-EN)
96-well clear assay plates
0 μM. […] PF8380 was used as a positive control for the assay. Data was analyzed using GraphPad Prism 8.0.

Structures can show the parent of a compound that is named as a salt. Where two headings read alike, the source gives them in different places.

A word on the IC50: it is the concentration that inhibits the measured activity by half.

T1 sequence (P22413 whole entry, looked up): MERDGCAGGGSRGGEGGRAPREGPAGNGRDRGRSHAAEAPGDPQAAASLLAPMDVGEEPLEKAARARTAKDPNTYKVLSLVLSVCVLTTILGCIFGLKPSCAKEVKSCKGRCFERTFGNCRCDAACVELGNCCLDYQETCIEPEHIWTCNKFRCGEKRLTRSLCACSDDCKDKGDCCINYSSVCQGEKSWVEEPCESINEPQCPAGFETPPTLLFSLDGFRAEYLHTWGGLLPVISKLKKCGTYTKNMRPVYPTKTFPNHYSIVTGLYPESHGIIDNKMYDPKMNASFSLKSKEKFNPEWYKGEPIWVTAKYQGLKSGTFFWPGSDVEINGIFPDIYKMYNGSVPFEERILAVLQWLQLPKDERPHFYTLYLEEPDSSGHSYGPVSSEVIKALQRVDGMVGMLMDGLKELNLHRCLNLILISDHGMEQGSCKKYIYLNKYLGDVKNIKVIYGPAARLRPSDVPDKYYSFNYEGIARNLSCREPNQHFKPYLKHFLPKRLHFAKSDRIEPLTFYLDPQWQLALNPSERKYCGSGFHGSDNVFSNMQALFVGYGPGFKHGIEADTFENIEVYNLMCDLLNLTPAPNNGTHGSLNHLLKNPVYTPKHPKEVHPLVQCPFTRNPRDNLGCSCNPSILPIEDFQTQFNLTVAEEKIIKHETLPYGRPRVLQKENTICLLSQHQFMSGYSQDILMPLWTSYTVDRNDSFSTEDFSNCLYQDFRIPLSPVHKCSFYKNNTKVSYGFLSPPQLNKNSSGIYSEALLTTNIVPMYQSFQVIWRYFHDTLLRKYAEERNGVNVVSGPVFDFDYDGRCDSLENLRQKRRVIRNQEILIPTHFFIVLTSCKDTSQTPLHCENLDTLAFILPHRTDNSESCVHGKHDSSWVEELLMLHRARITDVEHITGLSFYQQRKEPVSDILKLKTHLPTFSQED

Take `COc1ccc2ncnc(N3CCCN(S(N)(=O)=O)CC3)c2c1` [Compound 022, 4-(6-methoxyquinazolin-4-yl)-1,4-diazepane-1-sulfonamide]: the half-inhibitory concentration (IC50) in assay [1] (read-out: IC50) stood at 116 nM. For the molecule `COc1cc2ncnc(OCCCCNS(N)(=O)=O)c2cc1OC` [Compound 053], the “Thermal Shift @10 uM (dTm (o C.))” value in assay [2] is listed as “$$$ ($$$ >3o C.)”. For `COc1cc2ncnc(NCCCCNS(N)(=O)=O)c2cc1OC` [Compound 056], the “Thermal Shift @10 uM (dTm (o C.))” value in assay [2] is “$$ ($$ <3o C.)”. Also, the concentration for half-maximal inhibition (IC50) in assay [3] is more than 1000 nM.

For the molecule `COc1cc2ncnc(N3CCCN(CCNS(N)(=O)=O)CC3)c2cc1OC.Cl` [Compound 063, (N-(2-(4-(6,7-dimethoxyquinazolin-4-yl)-1,4-diazepan-1-yl)ethyl)sulfamide hydrochloride], the IC50 in assay [1] (read-out: IC50) was found to be 68.1 nM. Regarding `COc1cc2ncnc(-c3ccc(NCCNS(N)(=O)=O)nc3)c2cc1OC.Cl` [Compound 048], in assay [2], the “Thermal Shift @10 uM (dTm (o C.))” value is listed as “$$ ($$ <3o C.)”. For the same molecule, the concentration for half-maximal inhibition (IC50) in assay [3] was more than 1000 nM. Consider `COc1cc2ncc(C#N)c(N3CCCC(NS(N)(=O)=O)CC3)c2cc1OC` (stereo not shown) [Compound 042, N-(1-(3-cyano-6,7-dimethoxyquinolin-4-yl)azepan-4-yl)sulfamoylamine], for which the IC50 in assay [1] (read-out: IC50) was 40.5 nM.

Turning to `COc1cc2ncnc(OCCCCCNS(N)(=O)=O)c2cc1OC` [Compound 054], the “Thermal Shift @10 uM (dTm (o C.))” value in assay [2] is recorded as “$$ ($$ <3o C.)”. In the case of `COc1cc2ncc(C#N)c(N3CCCC(CCNS(N)(=O)=O)CC3)c2cc1OC` (racemic) [Compound 038], the 50% inhibitory concentration (IC50) in assay [1] was 0.94 nM. On the same count and under the same terms, for `COc1cc2ncnc(N3CCCN(C(=O)CNS(N)(=O)=O)CC3)c2cc1OC.Cl` [Compound 064, (N-(2-(4-(6,7-dimethoxyquinazolin-4-yl)-1,4-diazepan-1-yl)-2-oxoethyl)sulfamide hydrochloride] the value was 72 nM.

Consider `COc1cc2ncnc(N3CCCN(CCNS(N)(=O)=O)CC3)c2cc1OC.Cl` [Compound 063], for which, in assay [2], the “Thermal Shift @10 uM (dTm (o C.))” value is recorded as “$$ ($$ <3o C.)”.

On to `COc1cc2ncnc(N3CCCN(S(N)(=O)=O)CC3)c2cc1OC` [Compound 015-MES, 4-(6,7-dimethoxyquinazolin-4-yl)-1,4-diazepane-1-sulfonamide methanesulfonate], for which the half-inhibitory concentration (IC50) in assay [1] (methanesulfonate, read-out: IC50) turned out to be 6.38 nM. As for `COc1cc2ncnc(N(C)CCCCCNS(N)(=O)=O)c2cc1OC` [Compound 061, N-(5-((6,7-dimethoxyquinazolin-4-yl) (methyl)amino)pentyl) sulfamide], in assay [2], the “Thermal Shift @10 uM (dTm (o C.))” value was “$$ ($$ <3o C.)”. As for `COc1cc2ncnc(CCCCCNS(N)(=O)=O)c2cc1OC` [Compound 050], the “Thermal Shift @10 uM (dTm (o C.))” value in assay [2] is recorded as “$$ ($$ <3o C.)”. Further, the IC50 in assay [3] was more than 1000 nM. Consider `COc1cc2ncnc(SCCCCNS(N)(=O)=O)c2cc1OC` [Compound 058, N-(4-((6,7-dimethoxyquinazolin-4-yl)thio)butyl) sulfamide hydrochloride], for which the “Thermal Shift @10 uM (dTm (o C.))” value in assay [2] was “$$$ ($$$ >3o C.)”.

Regarding `COc1cc2ncnc(NCCCNS(N)(=O)=O)c2cc1OC` [Compound 055, N-(3-((6,7-dimethoxyquinazolin-4-yl)amino)propyl) sulfamide hydrochloride], the “Thermal Shift @10 uM (dTm (o C.))” value in assay [2] is on record as “$$ ($$ <3o C.)”. The same measure, in the same setting: the value for `COc1cc2ncnc(N3CCCN(C(=O)CNS(N)(=O)=O)CC3)c2cc1OC.Cl` [Compound 064] was “$$ ($$ <3o C.)”.

On to `COc1cc2ncnc(N3CCCC(CCNS(N)(=O)=O)CC3)c2cc1OC` (stereo not shown) [Compound 060, N-(2-(1-(6,7-dimethoxyquinazolin-4-yl)azepan-4-yl)ethyl)sulfamide], for which the “Thermal Shift @10 uM (dTm (o C.))” value in assay [2] is listed as “$$$ ($$$ >3o C.)”. On to `COc1cc2ncnc(N3CCCN(S(N)(=O)=O)CC3)c2cc1OC` [Compound 015, 4-(6,7-dimethoxyquinazolin-4-yl)-1,4-diazepane-1-sulfonamide], for which the concentration for half-maximal inhibition (IC50) in assay [1] (read-out: IC50) was determined as 32.4 nM. Consider `COc1cc2ncnc(N3CCCC(CCNS(N)(=O)=O)CC3)c2cc1OC` (stereo not shown) [Compound 049], for which, in assay [2], the “Thermal Shift @10 uM (dTm (o C.))” value is listed as “$$$ ($$$ >3o C.)”. In assay [3], the half-maximal inhibitory concentration (IC50) is more than 1000 nM. As to `COc1cc2c(N3CCCN(S(N)(=O)=O)CC3)ncnc2cc1-c1cn[nH]c1` [Compound 020, 4-(6-methoxy-7-(1H-pyrazol-4-yl)quinazolin-4-yl)-1,4-diazepane-1-sulfonamide], the concentration for half-maximal inhibition (IC50) in assay [1] (read-out: IC50) amounted to 99.7 nM. As for `COc1cc2ncnc(NCCCCCNS(N)(=O)=O)c2cc1OC` [Compound 057], in assay [2], the “Thermal Shift @10 uM (dTm (o C.))” value is given as “$$ ($$ <3o C.)”. Turning to `COc1cc2ncnc(N3CC4CC(C3)N(S(N)(=O)=O)C4)c2cc1OC` (stereo not shown) [Compound 026, 3-(6,7-dimethoxyquinazolin-4-yl)-3,6-diazabicyclo[3.2.1]octane-6-sulfonamide hydrochloride], the IC50 in assay [1] (read-out: IC50) came out at 118 nM. `COc1cc2ncnc(N3CCCN(S(N)(=O)=O)CC3)c2cc1OC.Cl` [Compound 015-HCl, 4-(6,7-dimethoxyquinazolin-4-yl)-1,4-diazepane-1-sulfonamide hydrochloride salt]: the 50% inhibitory concentration (IC50) in assay [1] (hydrochloride salt, read-out: IC50) is 5.97 nM; in assay [3], more than 1000 nM. The “Thermal Shift @10 uM (dTm (o C.))” value in assay [2] is given as “$$$ ($$$ >3o C.)”. On to `COc1cc2ncnc(N3CCCN(C(=O)CNS(N)(=O)=O)CC3)c2cc1OC` [Compound 065], for which the IC50 in assay [1] (read-out: IC50) was 7.74 nM; in assay [3], more than 1000 nM. Moreover, the “Thermal Shift @10 uM (dTm (o C.))” value in assay [2] is given as “$$$ ($$$ >3o C.)”. With `COc1cc2ncnc(N3CCCN(CCNS(N)(=O)=O)CC3)c2cc1OC` [Compound 062], in assay [2], the “Thermal Shift @10 uM (dTm (o C.))” value is reported as “$$ ($$ <3o C.)”. In addition, the IC50 in assay [3] is more than 1000 nM. The corresponding values for `COc1cc2ncnc(-c3ccc(CNS(N)(=O)=O)nc3)c2cc1OC` [Compound 047, N-((5-(6,7-dimethoxyquinazolin-4-yl)pyridin-2-yl)methyl) sulfamide] are “$$ ($$ <3o C.)” and more than 1000 nM. Regarding `COc1cc2ncnc(N3CCN(S(N)(=O)=O)CC(F)(F)C3)c2cc1OC` [Compound 029, 4-(6,7-dimethoxyquinazolin-4-yl)-6,6-difluoro-1,4-diazepane-1-sulfonamide hydrochloride], the IC50 in assay [1] (read-out: IC50) is 1.21 nM.

Source of the values: patent publication US11591313B2, “Inhibitors of ectonucleotide pyrophosphatase/phosphodiesterase 1 (ENPP1) and methods of use thereof” (Stingray Therapeutics, Inc., priority 2020, dated 2023).
